Measurements reported in a flash point compilation (Sun et al. 2020).

SMILES | flash point [°C]
Nc1ccccc1[N+](=O)[O-] [2-nitroaniline] | 168.00
CCCCCCCCC1CO1 (stereo not drawn) [2-octyloxirane] | 78.00
OCCOc1ccccc1 [2-phenoxyethanol] | 121.00
N#CCc1ccccc1 [2-phenylacetonitrile] | 102.00
c1ccc(C2CO2)cc1 (stereo not drawn) [2-phenyloxirane] | 79.00
NCCN1CCNCC1 [2-piperazin-1-ylethanamine] | 93.00
O=C(O)CS [2-sulfanylacetic acid] | 113.00
COc1ccc(O)c(C(C)(C)C)c1.COc1ccc(O)cc1C(C)(C)C [2-tert-butyl-4-methoxyphenol;3-tert-butyl-4-methoxyphenol] | 113.00
COc1ccc(O)c(C(C)(C)C)c1 [2-tert-butyl-4-methoxyphenol] | 156.00
CC(C)(C)OOC(C)(C)C [2-tert-butylperoxy-2-methylpropane] | 18.00
CC(C)(C)c1ccccc1O [2-tert-butylphenol] | 110.00
C=CC(F)(F)C(F)(F)C(F)(F)C(F)(F)F [3,3,4,4,5,5,6,6,6-nonafluorohex-1-ene] | -17.00
CC1CC(O)CC(C)(C)C1 (stereo not drawn) [3,3,5-trimethylcyclohexan-1-ol] | 74.00
O=CC1CCC=CO1 (stereo not drawn) [3,4-dihydro-2H-pyran-2-carbaldehyde] | 48.00
C1=COCCC1 [3,4-dihydro-2H-pyran] | -18.00
Cc1ccc(N)cc1C [3,4-dimethylaniline] | 98.00
CC(CCO)CC(C)(C)C (stereo not drawn) [3,5,5-trimethylhexan-1-ol] | 93.00
CN1CSC(=S)N(C)C1 [3,5-dimethyl-1,3,5-thiadiazinane-2-thione] | 93.00
C=CC(C)(O)CCC=C(C)C (stereo not drawn) [3,7-dimethylocta-1,6-dien-3-ol] | 78.00
CC(C)=CCCC(C)=CC=O [3,7-dimethylocta-2,6-dienal] | 102.00
CCCCCCCCC/C=C/CC1CC(=O)OC1=O (stereo not drawn) [3-[(E)-dodec-2-enyl]oxolane-2,5-dione] | 178.00
O=C(O)CCP(CCC(=O)O)CCC(=O)O [3-[bis(2-carboxyethyl)phosphanyl]propanoic acid] | 202.00
OCCCBr [3-bromopropan-1-ol] | 94.00

SMILES | flash point [°C]
C=C(C)CCl [3-chloro-2-methylprop-1-ene] | -13.00
OCCCCl [3-chloropropan-1-ol] | 73.00
OCC(O)CCl (stereo not drawn) [3-chloropropane-1,2-diol] | 59.00
CCOc1cc(C=O)ccc1O [3-ethoxy-4-hydroxybenzaldehyde] | 145.00
COC(C)CCOC(C)=O (stereo not drawn) [3-methoxybutyl acetate] | 77.00
Cc1cccc(C#N)c1 [3-methylbenzonitrile] | 87.00
CC(C)=CCO [3-methylbut-2-en-1-ol] | 50.00
CC(C)=CC=O [3-methylbut-2-enal] | 37.00
CC(C)C(C)O (stereo not drawn) [3-methylbutan-2-ol] | 33.00
CC(=O)C(C)C [3-methylbutan-2-one] | 6.00
CC(C)CC=O [3-methylbutanal] | 13.00
CC(=O)OCCC(C)C [3-methylbutyl acetate] | 25.00
CC1CCCC(O)C1 (stereo not drawn) [3-methylcyclohexan-1-ol] | 62.00
O=CC=Cc1ccccc1 [3-phenylprop-2-enal] | 120.00
C=CCOCC=C [3-prop-2-enoxyprop-1-ene] | -7.00
CCCOCCCO [3-propoxypropan-1-ol] | 53.00
CCO[Si](CCCN)(OCC)OCC [3-triethoxysilylpropan-1-amine] | 98.00
C=C(C)C(=O)OCCC[Si](OC)(OC)OC [3-trimethoxysilylpropyl 2-methylprop-2-enoate] | 92.00
CC1(C)COCN1 [4,4-dimethyl-1,3-oxazolidine] | 49.00
COc1cc(-c2ccc(N)c(OC)c2)ccc1N [4-(4-amino-3-methoxyphenyl)-2-methoxyaniline] | 206.00
Nc1ccc(Oc2ccc(N)cc2)cc1 [4-(4-aminophenoxy)aniline] | 219.00
Nc1ccc(Cc2ccc(N)cc2)cc1 [4-[(4-aminophenyl)methyl]aniline] | 221.00
Oc1ccc(Cl)cc1 [4-chlorophenol] | 121.00

SMILES | flash point [°C]
COP(=S)(OC)Oc1ccc(C#N)cc1 [4-dimethoxyphosphinothioyloxybenzonitrile] | 104.00
CCOc1ccc(N)cc1 [4-ethoxyaniline] | 116.00
CC(=O)CC(C)(C)O [4-hydroxy-4-methylpentan-2-one] | 52.00
COC(C)(C)CC(C)=O [4-methoxy-4-methylpentan-2-one] | 61.00
COc1ccc(C=O)cc1 [4-methoxybenzaldehyde] | 116.00
Cc1ccc(N)cc1N [4-methylbenzene-1,3-diamine] | 149.00
CN1CCOCC1 [4-methylmorpholine] | 24.00
CC1CC(=O)O1 (stereo not drawn) [4-methyloxetan-2-one] | 60.00
C=CCC(C)C [4-methylpent-1-ene] | -32.00
CC(C)CC(C)N (stereo not drawn) [4-methylpentan-2-amine] | 13.00
CC(=O)OC(C)CC(C)C (stereo not drawn) [4-methylpentan-2-yl acetate] | 45.00
O=[N+]([O-])c1ccc(Nc2ccccc2)cc1 [4-nitro-N-phenylaniline] | 190.00
Nc1ccc([N+](=O)[O-])cc1 [4-nitroaniline] | 199.00
CCCCCCCCCc1ccc(O)cc1 [4-nonylphenol] | 113.00
Oc1ccc(-c2ccccc2)cc1 [4-phenylphenol] | 166.00
CC(C)(C)c1ccc(O)cc1 [4-tert-butylphenol] | 113.00
CCCCOCCOCCOCc1cc2c(cc1CCC)OCO2 [5-[2-(2-butoxyethoxy)ethoxymethyl]-6-propyl-1,3-benzodioxole] | 171.00
CC1CCC(C(C)C)C(O)C1 (stereo not drawn) [5-methyl-2-propan-2-ylcyclohexan-1-ol] | 91.00
CCC(=O)CC(C)CC (stereo not drawn) [5-methylheptan-3-one] | 43.00
CC1CCC(=O)O1 (stereo not drawn) [5-methyloxolan-2-one] | 81.00
CC(=O)CCC=C(C)C [6-methylhept-5-en-2-one] | 57.00
CC(C)CCCCCO [6-methylheptan-1-ol] | 82.00

Continued, values first:

flash point [°C] | SMILES
79.00 | Cc1ccc2ccccc2n1 [2-methylquinoline]
96.00 | OCCc1ccccc1 [2-phenylethanol]
129.00 | OCCOCc1ccccc1 [2-phenylmethoxyethanol]
122.00 | CC(C)c1ccc2ccccc2c1 [2-propan-2-ylnaphthalene]
170.00 | c1ccc2n[nH]nc2c1 [2H-benzotriazole]
93.00 | Cc1cc(C)cc(N)c1 [3,5-dimethylaniline]
101.00 | CN1CCCC1c1cccnc1 (stereo not drawn) [3-(1-methylpyrrolidin-2-yl)pyridine]
71.00 | CC1CCCCN1CCCOC(=O)c1ccc(Cl)c(Cl)c1 (stereo not drawn) [3-(2-methylpiperidin-1-yl)propyl 3,4-dichlorobenzoate]
69.00 | CC(=O)C1C(=O)C=C(C)OC1=O (stereo not drawn) [3-acetyl-6-methylpyran-2,4-dione]
110.00 | Oc1cccc(Br)c1 [3-bromophenol]
86.00 | Cc1cccc(O)c1 [3-methylphenol]
36.00 | Cc1cccnc1 [3-methylpyridine]
126.00 | OCC=Cc1ccccc1 [3-phenylprop-2-en-1-ol]
149.00 | O=C1OC(=O)C2CCCCC12 (stereo not drawn) [3a,4,5,6,7,7a-hexahydro-2-benzofuran-1,3-dione]
195.00 | Nc1ccc(O)cc1 [4-aminophenol]
88.00 | O=Cc1ccc(Cl)cc1 [4-chlorobenzaldehyde]
50.00 | O=C(Nc1cccc(Cl)c1)OCC#CCCl [4-chlorobut-2-ynyl N-(3-chlorophenyl)carbamate]
104.00 | CCc1ccc(O)cc1 [4-ethylphenol]
74.00 | Nc1ccc(F)cc1 [4-fluoroaniline]
79.00 | CC1=CCC(O)(C(C)C)CC1 (stereo not drawn) [4-methyl-1-propan-2-ylcyclohex-3-en-1-ol]
202.00 | Cc1ccc(S(N)(=O)=O)cc1 [4-methylbenzenesulfonamide]
184.00 | Cc1ccc(S(=O)(=O)O)cc1 [4-methylbenzenesulfonic acid]
128.00 | Cc1ccc(S(=O)(=O)Cl)cc1 [4-methylbenzenesulfonyl chloride]
86.00 | Cc1ccc(O)cc1 [4-methylphenol]
57.00 | Cc1ccncc1 [4-methylpyridine]
202.00 | O=C(O)c1ccc([N+](=O)[O-])cc1 [4-nitrobenzoic acid]
192.00 | O=[N+]([O-])c1ccc(O)cc1 [4-nitrophenol]
213.00 | CCCCCCCCc1ccc(Nc2ccc(CCCCCCCC)cc2)cc1 [4-octyl-N-(4-octylphenyl)aniline]
74.00 | C=Cc1ccc(C)nc1 [5-ethenyl-2-methylpyridine]
110.00 | Cc1ccc(C(C)C)c(O)c1 [5-methyl-2-propan-2-ylphenol]
